Holding throughout (format): functional
For one assay, the system named is Aspergillus niger. Kind of assay: Antimicrobial activity against Aspergillus niger after 72 to 96 hr by two-fold serial dilution method.
The subject of a further assay is Escherichia coli. Kind of assay: Antimicrobial activity against Escherichia coli after 24 hr by two-fold serial dilution method.
The subject of the next assay is Pseudomonas aeruginosa. Kind of assay: Antimicrobial activity against Pseudomonas aeruginosa after 24 hr by two-fold serial dilution method.
The next assay relates to Aspergillus flavus. Put plainly: Antimicrobial activity against Aspergillus flavus after 72 to 96 hr by two-fold serial dilution method.
A further assay deals with Salmonella typhi. Put plainly: Antimicrobial activity against Salmonella enterica subsp. enterica serovar Typhi after 24 hr by two-fold serial dilution method.
For a further assay, the system named is Candida albicans. Put plainly: Antimicrobial activity against Candida albicans after 72 to 96 hr by two-fold serial dilution method.
Another assay deals with Rhizopus. Put plainly: Antimicrobial activity against Rhizopus sp. after 72 to 96 hr by two-fold serial dilution method.
The test system of another assay is Staphylococcus aureus. Kind of assay: Antimicrobial activity against Staphylococcus aureus after 24 hr by two-fold serial dilution method.

The structures appear in SMILES notation. Converted amounts (≈) assume the structure as drawn.

In the case of `CCC1C(c2ccccc2)OC(c2ccccc2)CC12NC(=S)NN2c1ccccc1` (centres undefined), the MIC with Aspergillus niger was found to be 25 µg/mL (≈ 58.2 µM); with Escherichia coli it was 12.5 µg/mL (≈ 29.1 µM); in the assay with Pseudomonas aeruginosa, 12.5 µg/mL (≈ 29.1 µM); with Aspergillus flavus, 50 µg/mL (≈ 116 µM); against Salmonella typhi, 25 µg/mL (≈ 58.2 µM); with Candida albicans, 25 µg/mL (≈ 58.2 µM). The minimal inhibitory concentration (MIC) worked out at 12.5 µg/mL (≈ 29.1 µM) against Rhizopus and 25 µg/mL (≈ 58.2 µM) against Staphylococcus aureus.
Take `S=C1NNC2(CC(c3ccccc3)OC(c3ccccc3)C2)N1` (centres undefined): the MIC was 50 µg/mL (≈ 154 µM) in the assay on Aspergillus niger; 50 µg/mL (≈ 154 µM) against Escherichia coli; 100 µg/mL (≈ 307 µM) against Pseudomonas aeruginosa; 100 µg/mL (≈ 307 µM) against Aspergillus flavus; 25 µg/mL (≈ 76.8 µM) in the assay with Salmonella typhi; 200 µg/mL (≈ 615 µM) in the assay on Candida albicans. Besides, the results for the MIC against Rhizopus and against Staphylococcus aureus were 100 µg/mL (≈ 307 µM) and 12.5 µg/mL (≈ 38.4 µM), respectively.
Regarding `CC1C(c2ccccc2)OC(c2ccccc2)CC12NNC(=S)N2` (centres undefined), the MIC stood at 50 µg/mL (≈ 147 µM) with Aspergillus niger; 100 µg/mL (≈ 295 µM) against Escherichia coli; 50 µg/mL (≈ 147 µM) with Pseudomonas aeruginosa; 50 µg/mL (≈ 147 µM) with Aspergillus flavus; 100 µg/mL (≈ 295 µM) in the assay with Salmonella typhi; 100 µg/mL (≈ 295 µM) against Candida albicans. The MIC against Rhizopus and against Staphylococcus aureus was 25 µg/mL (≈ 73.6 µM) each time.
As for `O=C(O)c1cn(C2CC2)c2cc(N3CCNCC3)c(F)cc2c1=O` [CIPROFLOXACIN], the minimal inhibitory concentration (MIC) with Escherichia coli is 25 µg/mL (≈ 75.4 µM); against Salmonella typhi, 50 µg/mL (≈ 151 µM).
With `CCC1C(c2ccccc2)OC(c2ccccc2)CC12NNC(=S)N2` (centres undefined), the minimal inhibitory concentration (MIC) with Aspergillus niger was found to be 25 µg/mL (≈ 70.7 µM); in the assay with Escherichia coli, 100 µg/mL (≈ 283 µM); in the assay with Pseudomonas aeruginosa, 100 µg/mL (≈ 283 µM); against Aspergillus flavus it was 50 µg/mL (≈ 141 µM); against Salmonella typhi, 25 µg/mL (≈ 70.7 µM); against Candida albicans it was 100 µg/mL (≈ 283 µM). Besides, the minimum inhibitory concentration (MIC) with Rhizopus stood at 100 µg/mL (≈ 283 µM); in the assay on Staphylococcus aureus it was 50 µg/mL (≈ 141 µM).
On to `C[C@@H]1[C@H](O)[C@@H](C)/C=C/C=C/C=C/C=C/C=C/C=C/C=C/[C@H](O[C@@H]2O[C@H](C)[C@@H](O)[C@H](N)[C@@H]2O)C[C@@H]2O[C@](O)(C[C@@H](O)C[C@@H](O)[C@H](O)CC[C@@H](O)C[C@@H](O)CC(=O)O[C@H]1C)C[C@H](O)[C@H]2C(=O)O` [AMPHOTERICIN B], for which the MIC was found to be 50 µg/mL (≈ 54.1 µM) against Aspergillus niger, 50 µg/mL (≈ 54.1 µM) in the assay with Aspergillus flavus, 25 µg/mL (≈ 27.1 µM) in the assay with Candida albicans and 25 µg/mL (≈ 27.1 µM) in the assay on Rhizopus.
`S=C1NN(c2ccccc2)C2(CC(c3ccccc3)OC(c3ccccc3)C2)N1` (centres undefined): the MIC was 50 µg/mL (≈ 125 µM) against Aspergillus niger; 50 µg/mL (≈ 125 µM) with Escherichia coli; 25 µg/mL (≈ 62.3 µM) against Pseudomonas aeruginosa; 12.5 µg/mL (≈ 31.1 µM) in the assay on Aspergillus flavus; 50 µg/mL (≈ 125 µM) against Salmonella typhi; 50 µg/mL (≈ 125 µM) against Candida albicans. The results for the minimal inhibitory concentration (MIC) against Rhizopus and in the assay with Staphylococcus aureus were 12.5 µg/mL (≈ 31.1 µM) and 50 µg/mL (≈ 125 µM), respectively.
For the compound `CC1C(c2ccccc2)OC(c2ccccc2)CC12NC(=S)NN2c1ccccc1` (centres undefined), the MIC with Aspergillus niger was found to be 25 µg/mL (≈ 60.2 µM); with Escherichia coli it was 12.5 µg/mL (≈ 30.1 µM); against Pseudomonas aeruginosa, 25 µg/mL (≈ 60.2 µM); with Aspergillus flavus it was 12.5 µg/mL (≈ 30.1 µM); in the assay on Salmonella typhi it was 25 µg/mL (≈ 60.2 µM); with Candida albicans, 50 µg/mL (≈ 120 µM). The MIC in the assay with Rhizopus and in the assay with Staphylococcus aureus was 25 µg/mL (≈ 60.2 µM) each time.

The values above are taken from ChEMBL document CHEMBL3045683, “Synthesis, characterisation and antimicrobial activities of novel 7,9-diphenyl-1,2,4-triaza-8-oxa-spiro[4.5]-decan-3-thiones” (2011).
